Data on five compounds can be found in paper PMC7145288, “New Peptide-Based Pharmacophore Activates 20S Proteasome” (Molecules, 2020).

The subject of experiment [1] is 20S core proteasome α face pockets. Nature of the experiment: Competition with Rpt C-terminal tail peptides for α face pockets (ChT-L activity). It counts as biochemical, human. Particulars: Rpt peptide 1 μM added before TAT peptide; for Competition with Rpt tail peptides (in words, from radar plot scores): Rpt2 α3/α4, Rpt3 α1/α2, Rpt5 α5/α6, Rpt6 α2/α3 pocket, three to six experiments; for Enhanced (synergistic) activation with Rpt tail peptides (in words): Rpt5 or Rpt6 tails. The text has this:
As mentioned above, the binding pockets on the α face accept “anchors” from natural protein ligands of the 20S core. […] The 10-residue Rpt-derived C-terminal “tail” peptides (“Rpt peptides”) can be used as competitors with the Rpt subunits or with small allosteric ligands. Importantly, the Rpt peptides interject between the subunits with their C-termini, whereas TAT peptides, according to the modeling, use their N-termini for this purpose. To test the specificity of interactions between TAT compounds and the α face, we performed competition experiments. The 20S core was challenged with selected TAT compounds after treatment with Rpt peptides. We selected peptides of Rpt2 ([…]), Rpt3 ([…]), Rpt5 ([…]) and Rpt6 […]) subunits, docking in α3/α4, α1/α2, α5/α6 and α2/α3 pockets, respectively. Tails of Rpt2, 3, and 5 display the canonical HbYX motif, whereas the LeuTrpLys C-terminus of Rpt6 may be considered “pseudo-HbYX”, with a bulky Trp replacing Tyr. Results of the competition experiments are presented as radar plots in Figure 7. […] This pocket also emerged as the major binding site for (1) and (8). However, these compounds likely weakly competed with the Rpt2 tail for binding to the α3/α4 pocket as well. The α3/α4 pocket seemed to be favored by (6). […] These complex patterns point at the importance of allosteric effects between the α face ligands, the gate and the catalytic chamber.
Figure 7 TAT1 derivatives competed with selected C-terminal tails of Rpt (Regulatory Particle ATPases) subunits for binding to specific α face pockets. The scores presented in radar plots were calculated as ((relative activation by the [x] and Rpt tail)-(theoretical sum of activation by [x] and Rpt tail))/(theoretical sum of activation by [x] and Rpt tail), where [x] represent any TAT peptide. […] The positive scores for combinations of selected compounds with Rpt5 or Rpt6 tails indicated a presumed synergy in activation of the core. Average scores derived from three to six experiments are presented. The competition effects were statistically significant (at least p < 0.05) for Rpt3 peptide and (1) and (8), as well as for Rpt2 peptide and (6).
Human housekeeping core (20S) proteasome purified from erythrocytes was purchased from Boston Biochem, Inc. (Cambridge, MA) or from Enzo Life Sciences, Inc. (Farmingdale, NY). Multiple batches of the proteasomes were used and performed reproducibly. The stock proteasome was diluted to 0.2 mg/mL working solution in “dilution buffer” (50 mM Tris/HCl, pH 8, 20% glycerol). The following model peptide substrates, all releasing fluorescent 7-amino-4-methylcoumarin (AMC) reporter group after cleavage, were used: succinyl-LeuLeuValTyr-AMC (for the ChT-L peptidase; SucLLVY-AMC; Bachem Bioscience Inc., Philadelphia, PA), butoxycarbonyl-LeuArgArg-AMC (T-L; Bachem Bioscience Inc., Philadelphia, PA) and carbobenzoxy- LeuLeuGlu-AMC (PGPH; Enzo Life Sciences Inc., Farmingdale, NY). The substrates were used at concentration of 50 μM (ChT-L) or 100 μM (T-L, PGPH). Free AMC (Sigma-Aldrich, St. Louis, MO) was used as the standard. The C-terminal peptides derived from Rpt2, Rpt3, Rpt5 and Rpt6 were synthesized (standard solid-phase peptide chemistry) and purified to at least 98% purity by GenScript (Piscataway, NJ). The TAT peptides, Rpt peptides (except Rpt6) and the peptide substrates were dissolved in anhydrous dimethylsulfoxide (DMSO; Sigma-Aldrich, St. Louis, MO) and such stock solutions were stored at −20 °C. The total concentration of DMSO in final reaction mixtures never exceeded 3% (vol/vol). The Trp (tryptophan) -containing Rpt6 peptide was dissolved in ultrapure water and stored at −20 °C, protected from light. […]

In experiment [2] the test system is proteasome ChT-L activity in SK-N-SH (ATCC HTB-11) cell lysates. Nature of the experiment: ChT-L proteasome activity in lysates of treated SK-N-SH cells. It counts as cell-based, human. As for the experimental part:
[…] The content of live cells was determined by the Trypan Blue-exclusion assay. The cells were harvested, washed twice in PBS, resuspended in dilution buffer (see above) and stored in −80 °C. To prepare lysates the thawed preparations were vortexed with glass beads and centrifuged for 5 min 5000× g (4 °C). The supernatant was centrifuged for 20 min 14,000× g (4 °C). The resulting supernatant—“crude lysate” was diluted to 1 mg/mL of total protein with dilution buffer. 1 μg of lysate per assay (reaction buffer: 50 mM Tris/HCl pH 8, 0.1 mM MgCl2, 0.2 mM ATP, 0.1 mM dithiothreitol, 50 μM Suc-LLVY-AMC) was used for determination of ChT-L activity in a 96-well format, as above.

In experiment [3] the target is T1, human latent 20S core proteasome, chymotrypsin-like (ChT-L) activity (Homo sapiens, UniProt P25787+P60900).
T1 construct: Human housekeeping core (20S) proteasome purified from erythrocytes; purchased Boston Biochem, Inc. or Enzo Life Sciences, Inc; host or cells: human erythrocytes (natural source)
The experiment in a line: ChT-L peptidase activity of latent 20S proteasome (Suc-LLVY-AMC). Particulars: for Max Activation Fold ± SE: purified latent 20S, Tris/HCl pH 8, 50 μM Suc-LLVY-AMC, 37 °C, from fitted response curves, SEM. It counts as biochemical. The procedure: The stock proteasome was diluted to 0.2 mg/mL working solution in “dilution buffer” (50 mM Tris/HCl, pH 8, 20% glycerol). […] The substrates were used at concentration of 50 μM (ChT-L) or 100 μM (T-L, PGPH). […] The total concentration of DMSO in final reaction mixtures never exceeded 3% (vol/vol). […] The reaction was carried out in 96-well plates, in 100 μL of reaction mixture that consisted of 45 mM Tris/HCl, pH 8, 100 mM KCl, 1 mM EDTA (reaction buffer) and a fluorogenic peptide substrate, to which 200 ng (nearly […]) of proteasome were added. […] The proteasome was preincubated with a substrate for 10 min at room temperature, then 1 μL of DMSO or a desired concentration of a TAT peptide in 1 μL of DMSO were added. […] To test the competition with Rpt derived peptides, the Rpt peptide (1 μM) was added before the TAT peptide to the reaction mixture. The reaction rates were calculated from a linear segment of kinetic curves constructed from measurements in 1-min intervals.
A two-tailed t-test was applied to compare the means. The comparisons were allowing for unequal variances with a Welch correction. Abundance of proteasome conformers was compared with the chi squared test and two-sample proportion test. A significance level was set at 0.05. […] Reaction rates were calculated from a smoothed linear segment of kinetic traces using OriginPro 2019. Response curves (activity vs. compound concentration) were fitted with a nonlinear fitting application of OriginPro 2019. The AC50 and maximum activation fold was calculated based on the equations implemented to fit the response curves.

Square brackets hold non-standard residues; d marks the D form. Peptide text beside a SMILES is read from it. Oic = O=C(O)[C@@H]1C[C@@H]2CCCC[C@@H]2N1; dOic = O=C(O)[C@H]1C[C@H]2CCCC[C@H]2N1; Tic = O=C(O)[C@@H]1Cc2ccccc2CN1 A value given as a limit tells only on which side of the number the result lay.

`N=C(N)NCCC[C@H](NC(=O)CN)C(=O)N[C@@H](CCCCN)C(=O)N[C@@H](CCCCN)C(=O)N[C@@H](CCCNC(=N)N)C(=O)N[C@@H](CCCNC(=N)N)C(=O)N[C@@H](CCC(N)=O)C(=O)N[C@@H](CCCNC(=N)N)C(=O)N[C@@H](CCCNC(=N)N)C(=O)N[C@@H](CCCNC(=N)N)C(=O)N1CCC[C@H]1C(=O)N[C@@H](CO)C(=O)O` [(1)]: in experiment [1], the “Competition with Rpt tail peptides (in words, from radar plot scores)” value (from here on “Competition with Rpt tail peptides”) is given as “added a weakly negative score for the Rpt2 tail to the presumed major competitor Rpt3” and the “Enhanced (synergistic) activation with Rpt tail peptides (in words)” value (“Enhanced (synergistic) activation” for short) is listed as “enhanced activation in the presence of one of Rpt tails, namely Rpt5 or Rpt6”. For the same compound, the “Proteasome ChT-L activity in lysates of treated cells versus control lysates (in words)” value in experiment [2] (SK-N-SH cells, 1 µM peptide, 24 h, 1 μg lysate, 50 μM Suc-LLVY-AMC, n = 3–4) is reported as “lack of significant activation”.
Turning to `N=C(N)NCCC[C@H](NC(=O)CN)C(=O)N[C@@H](CCCCN)C(=O)N1Cc2ccccc2C[C@H]1C(=O)N1[C@H](C(=O)N[C@@H](CCCNC(=N)N)C(=O)N[C@@H](CCC(N)=O)C(=O)N2Cc3ccccc3C[C@H]2C(=O)N2[C@@H](C(=O)N[C@@H](CCCNC(=N)N)C(=O)N3CCC[C@H]3C(=O)N[C@@H](CO)C(=O)O)C[C@H]3CCCC[C@H]32)C[C@@H]2CCCC[C@@H]21` [(2)] (H-GRK[Tic][Oic]RQ[Tic][dOic]RPS-OH; N-terminus and C-terminus assumed), in experiment [1], the “Competition with Rpt tail peptides” value is “competing with Rpt2, Rpt3, and Rpt5 tails”; the “Enhanced (synergistic) activation” value is given as “synergy was especially pronounced for the Rpt6-(2) pair”. In addition, the “Max Activation Fold ± SE” value in experiment [3] is listed as 1.5 ± 0.26 fold. Further, the “Ability to activate ChT-L activity of latent 20S (in words)” value in experiment [3] (titration, latent human 20S, Suc-LLVY-AMC, n = 3–8) is listed as “very poor activator”.
As to `N=C(N)NCCC[C@H](NC(=O)CN)C(=O)N[C@@H](CCCCN)C(=O)N1Cc2ccccc2C[C@H]1C(=O)N1[C@H](C(=O)N[C@@H](CCCNC(=N)N)C(=O)N[C@@H](CCC(N)=O)C(=O)N[C@@H](CCCNC(=N)N)C(=O)N[C@@H](CCCNC(=N)N)C(=O)N[C@@H](CCCNC(=N)N)C(=O)N2CCC[C@H]2C(=O)N[C@@H](CO)C(=O)O)C[C@@H]2CCCC[C@@H]21` [(3)] (H-GRK[Tic][Oic]RQRRRPS-OH; N-terminus and C-terminus assumed), the “Max Activation Fold ± SE” value in experiment [3] was 3.3 ± 0.23 fold.
In the case of `NCCCC[C@H](NC(=O)[C@H](CCCCN)NC(=O)[C@H](CCCCN)NC(=O)[C@@H]1C[C@@H]2CCCC[C@@H]2N1C(=O)[C@@H]1Cc2ccccc2CN1C(=O)[C@H](CCCCN)NC(=O)[C@H](CCCCN)NC(=O)[C@@H](N)CCCCN)C(=O)O` [(6)], in experiment [1], the “Competition with Rpt tail peptides” value was “Rpt2 tail was a major competitor” and the “Enhanced (synergistic) activation” value is listed as “enhanced activation in the presence of one of Rpt tails, namely Rpt5 or Rpt6”.
With `CC(C)C[C@H](NC(=O)[C@H](Cc1ccccc1)NC(=O)c1cnccn1)B(O)O` [bortezomib, reference compound], the “Abolition of ChT-L activity in cell lysates” value in experiment [2] (1 µM bortezomib added to lysates from control and TAT-exposed SK-N-SH cells) was more than 85%.
